Data on 25 compounds can be found in US11180462B2, “Microbiocidal oxadiazole derivatives” (SYNGENTA PARTICIPATIONS AG, priority 2015, dated 2021).

Molecules are shown by their SMILES.

Experiment [1] has as its system Puccinia recondita f. Sp. Tritici. Put plainly: Fungicidal activity against Puccinia recondita f. sp. tritici / wheat / leaf disc preventative (brown rust). The format is in vivo. Conditions: foliar, 200 ppm in the applied formulation, wheat leaf segments, preventative, compared to untreated control leaf disks, read-out: disease control. As to the method:
Leaf disks or leaf segments of various plant species are cut from plants grown in a greenhouse. The cut leaf disks or segments are placed in multiwell plates (24-well format) onto water agar. The leaf disks are sprayed with a test solution before (preventative) or after (curative) inoculation. Compounds to be tested are prepared as DMSO solutions (max. 10 mg/ml) which are diluted to the appropriate concentration with 0.025% Tween20 just before spraying. The inoculated leaf disks or segments are incubated under defined conditions (temperature, relative humidity, light, etc.) according to the respective test system. A single evaluation of disease level is carried out 3 to 14 days after inoculation, depending on the pathosystem. Percent disease control relative to the untreated check leaf disks or segments is then calculated.
Fungicidal Activity Against Puccinia recondita f. Sp. Tritici/Wheat/Leaf Disc Preventative (Brown Rust)
Wheat leaf segments cv. Kanzler were placed on agar in multiwell plates (24-well format) and sprayed with the formulated test compound diluted in water. The leaf disks were inoculated with a spore suspension of the fungus 1 day after application. The inoculated leaf segments were incubated at 19° C. and 75% relative humidity (rh) under a light regime of 12 hours light/12 hours darkness in a climate cabinet and the activity of a compound was assessed as percent disease control compared to untreated when an appropriate level of disease damage appears in untreated check leaf segments (7 to 9 days after application).
The following compounds at 200 ppm in the applied formulation give at least 80% disease control in this test when compared to untreated control leaf disks under the same conditions, which show extensive disease development.

Experiment [2] deals with Glomerella lagenarium (Colletotrichum lagenarium). The experiment is described as follows: Fungicidal activity against Glomerella lagenarium (Colletotrichum lagenarium) liquid culture / cucumber / preventative (anthracnose). The format is cell-based. Conditions: Colletotrichum orbiculare; 20 ppm in the applied formulation; liquid culture (PDB), growth inhibition measured photometrically after 3 to 4 days; compared to untreated control; read-out: disease control. In outline:
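Percent activity against the untreated check was derived from photometric growth measurements made 2 to 7 days after conidia in potato dextrose broth were combined with compound at 20 ppm. Cultures were kept dark at 24 °C and 96% humidity.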

In the case of `CCCON(Cc1ccc(-c2noc(C(F)(F)F)n2)cc1)C(=O)COCCOC` [Compound 1.298, 2-(2-methoxyethoxy)-N-propoxy-N-[[4-[5-(trifluoromethyl)-1,2,4-oxadiazol-3-yl]phenyl]methyl]-acetamide], the pest or weed control at 200 ppm in experiment [1] was not below 80%. Further, the inhibition of growth at 20 ppm in experiment [2] is not below 80%.
`CCCON(Cc1ccc(-c2noc(C(F)(F)F)n2)cc1)C(C)=O` [Compound 1.320, N-propoxy-N-[[4-[5-(trifluoromethyl)-1,2,4-oxadiazol-3-yl]phenyl]methyl]-acetamide]: the pest or weed control at 200 ppm in experiment [1] was not below 80%. Moreover, the inhibition of growth at 20 ppm in experiment [2] is not below 80%.
On to `C#CCOC(C(=O)N(Cc1ccc(-c2noc(C(F)(F)F)n2)cc1)OC)c1ccc(Cl)cc1` (centres unmarked) [Compound 1.69, 2-(4-chlorophenyl)-N-methoxy-2-prop-2-ynoxy-N-[[4-[5-(trifluoromethyl)-1,2,4-oxadiazol-3-yl]phenyl]methyl]-acetamide], for which the pest or weed control at 200 ppm in experiment [1] is not below 80%. In experiment [2], the inhibition of growth at 20 ppm was not below 80%.
`O=C(c1cc2c(cc1Br)OCO2)N(Cc1ccc(-c2noc(C(F)(F)F)n2)cc1)C1CC1` [Compound 1.133, 6-bromo-N-cyclopropyl-N-[[4-[5-(trifluoromethyl)-1,2,4-oxadiazol-3-yl]phenyl]methyl]-1,3-benzodioxole-5-carboxamide]: in experiment [1], the pest or weed control at 200 ppm was not below 80%. Moreover, the inhibition of growth at 20 ppm in experiment [2] is not below 80%.
Regarding `C#CCCC(=O)N(Cc1ccc(-c2noc(C(F)(F)F)n2)cc1)CC1CC1` [Compound 1.205, N-(cyclopropylmethyl)-N-[[4-[5-(trifluoromethyl)-1,2,4-oxadiazol-3-yl]phenyl]methyl]pent-4-ynamide], the pest or weed control at 200 ppm in experiment [1] was not below 80%. Also, in experiment [2], the inhibition of growth at 20 ppm was not below 80%.
Take `CC(=O)NCC(=O)N(Cc1ccc(-c2noc(C(F)(F)F)n2)cc1)Cc1ccco1` [Compound 1.461, 2-acetamido-N-(2-furylmethyl)-N-[[4-[5-(trifluoromethyl)-1,2,4-oxadiazol-3-yl]phenyl]methyl]-acetamide]: the pest or weed control at 200 ppm in experiment [1] was not below 80%. For the same compound, the inhibition of growth at 20 ppm in experiment [2] was not below 80%.
For `CCCON(Cc1ccc(-c2noc(C(F)(F)F)n2)cc1)C(=O)C1(C#N)CC1` [Compound 1.313, 1-cyano-N-propoxy-N-[[4-[5-(trifluoromethyl)-1,2,4-oxadiazol-3-yl]phenyl]methyl]-cyclopropane-carboxamide], the pest or weed control at 200 ppm in experiment [1] was not below 80%. Also, in experiment [2], the inhibition of growth at 20 ppm is not below 80%.
Consider `C#CCN(Cc1ccc(-c2noc(C(F)(F)F)n2)cc1)C(=O)c1cc(Cl)ccc1O` [Compound 1.184, 5-chloro-2-hydroxy-N-prop-2-ynyl-N-[[4-(5-(trifluoromethyl)-1,2,4-oxadiazol-3-yl]phenyl]methyl]-benzamide], for which the pest or weed control at 200 ppm in experiment [1] was not below 80%. For the same compound, the inhibition of growth at 20 ppm in experiment [2] was not below 80%.
As for `CON(Cc1ccc(-c2noc(C(F)(F)F)n2)cc1)C(=O)N1CCCO1` [Compound 3.66, N-methoxy-N-[[4-[5-(trifluoromethyl)-1,2,4-oxadiazol-3-yl]phenyl]methyl]-isoxazolidine-2-carboxamide], in experiment [1], the pest or weed control at 200 ppm is not below 80%. Besides, the inhibition of growth at 20 ppm in experiment [2] is not below 80%.
Turning to `O=C(c1ccccc1)N(Cc1ccc(-c2noc(C(F)(F)F)n2)cc1)CC1CC1` [Compound 1.247, N-(cyclopropylmethyl)-N-[[4-[5-(trifluoromethyl)-1,2,4-oxadiazol-3-yl]phenyl]methyl]-benzamide], in experiment [1], the pest or weed control at 200 ppm is not below 80%. Further, the inhibition of growth at 20 ppm in experiment [2] is not below 80%.
`CC1(C(=O)N(Cc2ccc(-c3noc(C(F)(F)F)n3)cc2)C2CC2)CC1(Cl)Cl` (centres unmarked) [Compound 1.107, 2,2-dichloro-N-cyclopropyl-1-methyl-N-[[4-[5-(trifluoromethyl)-1,2,4-oxadiazol-3-yl]phenyl]methyl]-cyclopropane-carboxamide]: the pest or weed control at 200 ppm in experiment [1] was not below 80%. In experiment [2], the inhibition of growth at 20 ppm is not below 80%.
In the case of `O=C(c1ccoc1)N(Cc1ccc(-c2noc(C(F)(F)F)n2)cc1)CC1CCCO1` (centres unmarked) [Compound 1.449, N-(tetrahydrofuran-2-ylmethyl)-N-[[4-[5-(trifluoromethyl)-1,2,4-oxadiazol-3-yl]phenyl]methyl]-furan-3-carboxamide], in experiment [1], the pest or weed control at 200 ppm was not below 80%. Besides, the inhibition of growth at 20 ppm in experiment [2] was not below 80%.
Take `CCCON(Cc1ccc(-c2noc(C(F)(F)F)n2)cc1)C(=O)COC` [Compound 1.287, 2-methoxy-N-propoxy-N-[[4-[5-(trifluoromethyl)-1,2,4-oxadiazol-3-yl]phenyl]methyl]-acetamide]: the pest or weed control at 200 ppm in experiment [1] is not below 80%. Also, in experiment [2], the inhibition of growth at 20 ppm was not below 80%.
On to `CC#CC(=O)N(Cc1ccc(-c2noc(C(F)(F)F)n2)cc1)CC1CCCO1` (centres unmarked) [Compound 1.410, N-(tetrahydrofuran-2-ylmethyl)-N-[[4-[5-(trifluoromethyl)-1,2,4-oxadiazol-3-yl]phenyl]methyl]-2-ynamide], for which the pest or weed control at 200 ppm in experiment [1] was not below 80%. In addition, the inhibition of growth at 20 ppm in experiment [2] is not below 80%.
`CON(C(=O)C=C(F)CCl)C(C)c1ccc(-c2noc(C(F)(F)F)n2)cc1` (centres unmarked) [Compound 1.252, 4-chloro-3-fluoro-N-methoxy-N-[1-[4-[5-(trifluoromethyl)-1,2,4-oxadiazol-3-yl]phenyl]ethyl]but-2-enamide]: the pest or weed control at 200 ppm in experiment [1] was not below 80%. For the same compound, the inhibition of growth at 20 ppm in experiment [2] was not below 80%.
`CCC(C)C(=O)N(Cc1ccc(-c2noc(C(F)(F)F)n2)cc1)CC1CCCO1` (centres unmarked) [Compound 1.437, 2-methyl-N-(tetrahydrofuran-2-ylmethyl)-N-[[4-[5-(trifluoromethyl)-1,2,4-oxadiazol-3-yl]phenyl]methyl]-butanamide]: the pest or weed control at 200 ppm in experiment [1] is not below 80%. In addition, the inhibition of growth at 20 ppm in experiment [2] is not below 80%.
On to `CC(=O)NCC(=O)N(Cc1ccc(-c2noc(C(F)(F)F)n2)cc1)OCC=C(Cl)Cl` [Compound 1.537, 2-acetamido-N-(3,3-dichloroallyloxy)-N-[[4-[5-(trifluoromethyl)-1,2,4-oxadiazol-3-yl]phenyl]methyl]-acetamide], for which the pest or weed control at 200 ppm in experiment [1] is not below 80%. Also, the inhibition of growth at 20 ppm in experiment [2] was not below 80%.
With `CC#CCOC(=O)N(Cc1ccc(-c2noc(C(F)(F)F)n2)cc1)OC` [Compound 2.7, but-2-ynyl N-methoxy-N-[[4-[5-(trifluoromethyl)-1,2,4-oxadiazol-3-yl]phenyl]methyl]-carbamate], in experiment [1], the pest or weed control at 200 ppm is not below 80%. Besides, the inhibition of growth at 20 ppm in experiment [2] is not below 80%.
For the compound `COc1ccccc1CC(=O)N(Cc1ccc(-c2noc(C(F)(F)F)n2)cc1)C1CC1` [Compound 1.113, N-cyclopropyl-2-(2-methoxyphenyl)-N-[[4-[5-(trifluoromethyl)-1,2,4-oxadiazol-3-yl]phenyl]methyl]-acetamide], in experiment [1], the pest or weed control at 200 ppm is not below 80%. In addition, in experiment [2], the inhibition of growth at 20 ppm is not below 80%.
Consider `CON(Cc1c(F)cc(-c2noc(C(F)(F)F)n2)cc1F)C(=O)c1ccccc1Cl` [Compound 1.598, 2-chloro-N-[[2,6-difluoro-4-[5-(trifluoromethyl)-1,2,4-oxadiazol-3-yl]phenyl]methyl]-N-methoxy-benzamide], for which the pest or weed control at 200 ppm in experiment [1] was not below 80%. For the same compound, the inhibition of growth at 20 ppm in experiment [2] was not below 80%.
On to `C#CCN(C)C(=O)N(CC)Cc1ccc(-c2noc(C(F)(F)F)n2)cc1` [Compound 3.96, 1-ethyl-3-methyl-3-prop-2-ynyl-1-[[4-[5-(trifluoromethyl)-1,2,4-oxadiazol-3-yl]phenyl]methyl]urea], for which the pest or weed control at 200 ppm in experiment [1] was not below 80%. For the same compound, the inhibition of growth at 20 ppm in experiment [2] is not below 80%.
In the case of `C=CCN(Cc1ccc(-c2noc(C(F)(F)F)n2)cc1)C(=O)CCl` [Compound 1.482, N-allyl-2-chloro-N-[[4-[5-(trifluoromethyl)-1,2,4-oxadiazol-3-yl]phenyl]methyl]-acetamide], the pest or weed control at 200 ppm in experiment [1] is not below 80%. Moreover, the inhibition of growth at 20 ppm in experiment [2] was not below 80%.
For the compound `CC=CC(=O)N(OC)C(C)c1ccc(-c2noc(C(F)(F)F)n2)cc1` (centres unmarked) [Compound 1.250, N-methoxy-N-[1-[4-[5-(trifluoromethyl)-1,2,4-oxadiazol-3-yl]phenyl]ethyl]but-2-enamide], in experiment [1], the pest or weed control at 200 ppm is not below 80%. In addition, the inhibition of growth at 20 ppm in experiment [2] is not below 80%.
For the compound `CON(C(=O)C1=CCCC1)C(C)c1ccc(-c2noc(C(F)(F)F)n2)cc1` (centres unmarked) [Compound 1.258, N-methoxy-N-[1-[4-[5-(trifluoromethyl)-1,2,4-oxadiazol-3-yl]phenyl]ethyl]-cyclopentene-1-carboxamide], in experiment [1], the pest or weed control at 200 ppm was not below 80%. The inhibition of growth at 20 ppm in experiment [2] is not below 80%.
Take `CC(C)(CCl)C(=O)N(Cc1ccc(-c2noc(C(F)(F)F)n2)cc1)CC1CC1` [Compound 1.219, 3-chloro-N-(cyclopropylmethyl)-2,2-dimethyl-N-[[4-[5-(trifluoromethyl)-1,2,4-oxadiazol-3-yl]phenyl]methyl]-propanamide]: in experiment [1], the pest or weed control at 200 ppm is not below 80%. The inhibition of growth at 20 ppm in experiment [2] was not below 80%.
